Eight compounds from ChEMBL document CHEMBL5352428, “Covalent inhibitors of bacterial peptidoglycan biosynthesis enzyme MurA with chloroacetamide warhead” (Eur J Med Chem, 2022) can be followed below.

A short description of data set [1]: Thiol reactivity of compound at pH 7.4 buffer at 100 uM and measured for 4 hrs every 5 mins in presence of DTNB and TCEP by microplate reader analysis. Type of data set: physicochemical. Conditions: pH 7.4, 4 h.
Data set [2] deals with Escherichia coli. Put plainly: Antibacterial activity against Escherichia coli ATCC 25922 assessed as bacterial growth inhibition at <=128 ug/ml incubated for 24 hrs by broth dilution method. In kind it is functional, organism-based. Particulars: dose <= 128.0 µg/ml. Background: Dilution methods test growth across graded concentrations, often in twofold steps.
Data set [3] can be described thus: Thiol reactivity of compound at pH 7.4 buffer assessed as fold decrease by measuring second order rate constant at 100 uM and measured for 4 hrs every 5 mins in presence of DTNB and TCEP by microplate reader analysis relative to Iodoacetamide. Type of data set: physicochemical. Conditions: pH 7.4, 4 h.
In data set [4] the test system is Staphylococcus aureus. Briefly: Antibacterial activity against Staphylococcus aureus ATCC 29213 assessed as bacterial growth inhibition at <= 128 ug/ml incubated for 24 hrs by broth dilution method. Type of data set: functional, organism-based. Conditions: dose <= 128.0 µg/ml.
In data set [5] the target is UDP-N-acetylglucosamine 1-carboxyvinyltransferase (Escherichia coli K-12) (UniProt P0A749). Put plainly: Inhibition of recombinant Escherichia coli MurA expressed in Escherichia coli NiCo21 assessed as residual activity using UNAG and PEP as substrate at 500 uM preincubated for 30 mins in presence of UNAG followed by PEP substrate addition and measured after 15 mins by malachite green based colorimetric assay. Conditions: time 45.0 min.
Chain of UDP-N-acetylglucosamine 1-carboxyvinyltransferase (Escherichia coli K-12) (P0A749 whole entry): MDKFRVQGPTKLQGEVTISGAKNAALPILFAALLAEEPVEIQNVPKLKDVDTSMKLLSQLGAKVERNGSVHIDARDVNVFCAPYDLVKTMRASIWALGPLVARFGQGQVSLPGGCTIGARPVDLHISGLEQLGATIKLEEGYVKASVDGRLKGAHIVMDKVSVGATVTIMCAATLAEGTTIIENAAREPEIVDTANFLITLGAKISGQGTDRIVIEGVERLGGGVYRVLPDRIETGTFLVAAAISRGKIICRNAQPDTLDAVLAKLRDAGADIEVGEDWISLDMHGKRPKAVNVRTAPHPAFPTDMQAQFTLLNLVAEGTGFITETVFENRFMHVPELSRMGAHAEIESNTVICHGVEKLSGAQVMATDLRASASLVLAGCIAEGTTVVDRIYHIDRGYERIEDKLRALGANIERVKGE

The target is the same in data set [6]. Put plainly: Binding affinity to UNAG activated recombinant Escherichia coli MurA Cys115 residue at 5 mM incubated for 30 mins in presence of UNAG by LC-MS/MS analysis.
The target is the same in data set [7]. Put plainly: Irreversible inhibition of recombinant Escherichia coli MurA expressed in Escherichia coli NiCo21 assessed as residual activity using UNAG and PEP as substrate at 400 uM preincubated for 30 mins in presence of UNAG followed by PEP substrate addition and measured after 15 mins by malachite green based colorimetric assay. Particulars: time 45.0 min.

Data set [8] has as its target T1, UDP-N-acetylglucosamine 1-carboxyvinyltransferase (Escherichia coli K-12, UniProt P0A749). Briefly: Inhibition of recombinant Escherichia coli MurA expressed in Escherichia coli NiCo21 using UNAG and PEP as substrate preincubated for 15 mins in presence of UNAG followed by PEP substrate addition and measured after 15 mins by malachite green based colorimetric assay.

For data set [9], the target named is T1, UDP-N-acetylglucosamine 1-carboxyvinyltransferase. Briefly: Inhibition of recombinant Escherichia coli MurA expressed in Escherichia coli NiCo21 using UNAG and PEP as substrate preincubated for 30 mins in presence of UNAG followed by PEP substrate addition and measured after 15 mins by malachite green based colorimetric assay.
Data set [10] has as its target UDP-N-acetylglucosamine 1-carboxyvinyltransferase (Escherichia coli K-12) (UniProt P0A749). Put plainly: Irreversible inhibition of recombinant Escherichia coli MurA expressed in Escherichia coli NiCo21 assessed as residual activity using UNAG and PEP as substrate at 400 uM preincubated for 30 mins in presence of UNAG followed by 100 fold dilution and PEP substrate addition and measured after 15 mins by malachite green based colorimetric assay. Particulars: time 45.0 min.

Data set [11] shares this target. Briefly: Irreversible inhibition of recombinant Escherichia coli MurA expressed in Escherichia coli NiCo21 using UNAG and PEP as substrate assessed as second-order rate constant for enzyme inactivation, ratio of Kinact/Ki preincubated for 30 mins in presence of UNAG followed by 100 fold dilution and PEP substrate addition and measured after 15 mins by malachite green based colorimetric assay. Conditions: time 45.0 min.

Data set [12] has the same target. Briefly: Inhibition of recombinant Escherichia coli MurA expressed in Escherichia coli NiCo21 using UNAG and PEP as substrate and measured for 15 mins by malachite green based colorimetric assay.
The target is the same in data set [13]. Put plainly: Irreversible inhibition of recombinant Escherichia coli MurA expressed in Escherichia coli NiCo21 assessed as residual activity using UNAG and PEP as substrate at 1 mM preincubated for 30 mins in presence of UNAG followed by PEP substrate addition and measured after 15 mins by malachite green based colorimetric assay. Particulars: time 45.0 min.

Data set [14] has as its system Escherichia coli. Put plainly: Antibacterial activity against Escherichia coli ATCC 25922 assessed as bacterial growth inhibition incubated for 24 hrs by broth dilution method. In kind it is functional.
Data set [15] relates to Staphylococcus aureus. Briefly: Antibacterial activity against Staphylococcus aureus ATCC 29213 assessed as bacterial growth inhibition incubated for 24 hrs by broth dilution method. In kind it is functional.

Converted amounts (≈) assume the structure as drawn. The source made the active and inactive calls.

T1 sequence (P0A749 whole entry): as above

For `O=C(CCl)Nc1ccc(C2CCCCC2)cc1`, in data set [1], the Drug metabolism entry was “Metabolite_Detected”. Moreover, the outcome in [2] and in data set [4] was inactive. In [3], the “fold change (FC)” value is given as 167. Further, in data set [5], the Activity came to 54%.
As a reminder, the IC50 is the concentration that gives 50% inhibition. Take `O=C(CCl)NC1CCCC2CCCCC21` (stereo not drawn): in [1], the Drug metabolism entry is “Metabolite_Notdetected”. The outcome in data set [6] was Active. Further, the Activity in data set [7] was 1.6%. The IC50 in data set [8] is 400 µM; in data set [9] it was 39 µM. The outcome in [2], in data set [4] and in [10] was inactive. For the same compound, the “fold change (FC)” value in data set [3] was determined as 33. The Ratio in data set [11] is 4.78 10^-3/µM/min. Further, the inhibition result in [12] was “inactive”.
`CC(=O)NC1CCCC2CCCCC21` (stereo not drawn): the Activity in data set [13] was 96.1%.
Regarding `O=C(CCl)Nc1nccs1`, the Drug metabolism result in data set [1] is on record as “Metabolite_Detected”. Further, the result in data set [2] and in data set [4] was inactive. The “fold change (FC)” value in data set [3] came out at 4. In addition, the Activity in data set [5] is 55%.
What is called MIC is the smallest concentration in the dilution series that meets the test's criterion for growth inhibition. As to `O=C(CCl)N1CCN(CCC2CCCCC2)CC1`, in data set [1], the Drug metabolism entry is given as “Metabolite_Detected”. Also, the MIC in [14] was determined as 16 µg/mL (≈ 58.6 µM); in data set [15] it was 4 µg/mL (≈ 14.7 µM). Further, in [3], the “fold change (FC)” value was 3. Moreover, the Activity in data set [5] turned out to be 81%.
Regarding `CS(=O)(=O)NC1CCN(C(=O)CCl)CC1`, in [1], the Drug metabolism entry is “Metabolite_Detected”. Also, the result in data set [2] and in [4] was inactive. The IC50 in data set [9] turned out to be 240 µM. In data set [11], the Ratio was 4.16 10^-4/µM/min.
`O=C(CCl)N1CCC(Sc2nccs2)CC1`: the Drug metabolism result in [1] is given as “Metabolite_Detected”. The result in [2] and in data set [4] was inactive. The IC50 in data set [9] came to 195 µM. Further, the Ratio in data set [11] is 7.13 10^-3/µM/min.
Turning to `O=C(CCl)N1CCC(N2CCC(Br)C2=O)C1` (stereo not drawn), the Drug metabolism entry in data set [1] was “Metabolite_Detected”. In addition, the result in data set [2] and in data set [4] was inactive. For the same compound, the IC50 in data set [9] was determined as 263 µM. Besides, the “fold change (FC)” value in data set [3] was 2. In [11], the Ratio is 2.99 10^-4/µM/min.
